# Measurements reported in patent US9102675B2, “3-Cyanoaryl-1H-pyrrolo[2,3-B] pyridine derivatives” (MERCK PATENT GMBH, priority 2011, dated 2015).
# pIC50: −log10 of the molar value.
# Legend:
# [1] = target: T1, TANK binding kinase (TBK1) (Homo sapiens, UniProt Q9UHD2); experiment: TBK1 enzyme assay (384-well flashplate kinase assay); assay type: biochemical; conditions: 10 μM ATP, 0.6 nM TBK1
# T1 sequence (Q9UHD2 1-729): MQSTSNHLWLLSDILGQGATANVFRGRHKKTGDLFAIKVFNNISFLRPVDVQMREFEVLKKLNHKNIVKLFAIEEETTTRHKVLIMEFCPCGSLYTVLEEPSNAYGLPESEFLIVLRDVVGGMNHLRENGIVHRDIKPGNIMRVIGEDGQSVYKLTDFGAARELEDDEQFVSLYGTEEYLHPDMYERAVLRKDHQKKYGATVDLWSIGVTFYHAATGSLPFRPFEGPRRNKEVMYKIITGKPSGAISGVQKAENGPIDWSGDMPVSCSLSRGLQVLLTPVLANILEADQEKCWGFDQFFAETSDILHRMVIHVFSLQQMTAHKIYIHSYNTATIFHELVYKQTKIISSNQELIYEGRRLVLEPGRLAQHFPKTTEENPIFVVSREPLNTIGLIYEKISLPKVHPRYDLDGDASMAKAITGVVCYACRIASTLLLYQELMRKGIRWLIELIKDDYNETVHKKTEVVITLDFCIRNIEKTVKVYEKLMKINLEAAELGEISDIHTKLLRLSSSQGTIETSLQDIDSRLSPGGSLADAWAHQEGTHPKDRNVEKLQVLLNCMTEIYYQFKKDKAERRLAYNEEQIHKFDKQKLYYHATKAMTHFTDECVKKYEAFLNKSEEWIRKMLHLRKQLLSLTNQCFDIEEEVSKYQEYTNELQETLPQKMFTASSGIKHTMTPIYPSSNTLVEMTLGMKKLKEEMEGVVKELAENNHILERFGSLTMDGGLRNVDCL
# Method: Test for the Inhibition of TBK1
# The kinase assay is performed as 384-well flashplate assay (for example for Topcount measurement).
# 0.6 nM TANK binding kinase (TBK1), 800 nM biotinylated MELK-derived peptide (biotin-Ah-Ah-[…]) and 10 μM ATP (spiked with 0.25 μCi of ^33P-ATP/well) are incubated at 30° C. for 120 min in a total volume of 50 μl (10 mM MOPS, 10 mM Mg acetate, 0.1 mM EGTA, 1 mM DTT, 0.02% of Brij35, 0.1% of BSA, pH 7.5) with or without test compound. The reaction is stopped with 25 μl of 200 mM EDTA. After 30 min at room temperature, the liquid is removed, and each well is washed three times with 100 μl of 0.9% sodium chloride solution. Non-specific reaction is measured in the presence of 100 nM staurosporine. The radioactivity is measured in a Topcount (PerkinElmer). The results (for example IC50 values) are calculated using program tools provided by the IT Department (for example Assay-Explorer, Symyx). Cell Test
# [2] = tested on: TBK1 + IKKε; experiment: TBK1 + IKKε cell assay: dose response inhibition of phospho-IRF3 @ Ser 386 in MDA-MB-468 cells after poly(I:C) stimulation; assay type: cell-based; conditions: Homo sapiens, MDA-MB-468, MDA-MB-468 cells, nuclear phospho-IRF3 Ser386, read-out: TBK1 + IKKε cell assay IC50
# Excerpt: Dose response inhibition of phospho-IRF3 @ Ser 386 cell/MDAMB468/INH/PHOS/IMAG/pIRF3
# Although TBK1 and IKKε are mainly known as key substances in the innate immune response, recent findings have indicated a role for TBK1 and IKKε in Ras-induced oncogenic transformation. TBK1 was identified as RaIB effector in the Ras-like (RaI)-guanine nucleotide exchange factor (GEF) pathway that is required for Ras-induced transformation. TBK1 directly activates IRF3 which, on phosphorylation, homodimerises and translocates to the nucleus, where it activates processes associated with inflammation, immune regulation, cell survival and proliferation.
# This assay has been developed in order to assess the efficacy/potency of TBK1/IKKε inhibitor compounds based on the immunocytochemical detection of nucleus-localised phospho-IRF3, a target directly downstream of TBK1. Treatment with polyinosine-polycytidylic acid (poly(I:C), a synthetic analogue of double-stranded RNA (dsRNA), a molecular pattern associated with viral infection and recognised by Toll-like receptor 3 (TLR3) is used to induce TBK1/IKKε activity and IRF3 phosphorylation at Ser386.
# Day 1: MDA-MB-468 cells are detached using HyQ-Tase, counted and sown into a 384-well plate with TC surface and clear bottom in a density of 10,000 cells per well in a total volume of 35 μl of complete medium. Alternatively, the cells are sown directly from frozen glass vials.
# Day 2: The cells are pre-treated with inhibitor compounds for 1 h prior to poly(I:C) stimulation. After incubation for 2 h with poly(I:C), the cells are fixed in (para)formaldehyde (PFA) and permeabilised using methanol (MeOH). The cells are then blocked and incubated with an anti-pIRF3 antibody at 4° C. overnight.
# Day 3: The primary antibody is washed off, an AlexaFluor488-conjugated secondary antibody is added, the cells are contrast-stained with propidium iodide, followed by image acquisition on an IMX ultra-high content reader.
# Plating medium=culture medium: • RPMI 1640, Invitrogen #31870 • 10% of FCS, Invitrogen #10270-106 • 2 mM Glutamax, Invitrogen #35050-038 • 1 mM sodium pyruvate, Invitrogen #11360 • 1% of Pen/Strep • 37° C., 5% of CO2
# Plates: 384-well bottom cell culture plates with black/clear bottom, Falcon #35 3962 or Greiner #781090
# Subcultivation: HyQ-Tase, Thermo Scientific (HyClone) # SV30030.01
# Poly(I:C) (LMW), Invitrogen # tlrl-picw (prepare 20 mg/ml stock solution in sterile PBS, denature 30 min 55° C. in a water bath, slowly cool to RT, store at −20° C. in aliquots)
# a 10-point dose-response curve with MSC2119074A-4=BX-795 is included in each experiment
# Formaldehyde (methanol-free, 16%, ultrapure EM grade), Polysciences #18814 (storage RT), final conc.: 4%
# Goat serum, PAA # B15-035 (storage 4° C., long term −20° C.), final conc.: 10%
# BSA (IgG- and protease-free, 30%), US-Biological # A1317 (storage 4° C., long term −20° C.), final conc.: 2%
# Tween 20 detergent, Calbiochem #655204 (storage RT), (prepare 10% stock solution in water; final conc.: 0.1%)
# Anti-pIRF-3 rabbit mAb, Epitomics #2526-B (storage −20° C.), final conc.: 1:2000 in PBS/2% of BSA
# Alexa Fluor goat-anti-rabbit-488, Invitrogen # A11034 or # A11008 (storage 4° C., dark), final conc.: 1:2000 in PBS/2% of BSA/0.1% of Tween
# Propidium iodide (PI), Fluka #81845, 1 mg/ml in H2O (storage 4° C., dark), final conc.: 0.2 μg/ml
# (1) Sow 10,000 cells/well/35μof complete RPMI +10% FCS into 384-well bottom cell culture plates with black / clear bottom,
# (2) Incubate for 2 h at room temperature on the bench, followed by further incubation for 22 h at 37° C., 5% of CO2 and 90% RH. […]
pIC50 [1],pIC50 [2],SMILES
> 6.52,> 6.52,"N#Cc1cc(-c2c[nH]c3ncc(-c4cnn(C5COC5)c4)cc23)ccc1OC1CCOCC1 [Compound A26, 5-[5-[1-(Oxetan-3-yl)pyrazol-4-yl]-1H-pyrrolo[2,3-b]-pyridin-3-yl]-2-tetrahydropyran-4-yloxybenzonitrile]"
> 6.52,5.52 to 6.52,"N#Cc1cc(-c2c[nH]c3ncc(-c4cn(CCN5CCCC5)nn4)cc23)ccc1OC1CCOCC1 [Compound A27, 5-[5-[1-(2-Pyrrolidin-1-ylethyl)triazol-4-yl]-1H-pyrrolo-[2,3-b]pyridin-3-yl]-2-tetrahydropyran-4-yloxybenzo-nitrile]"
> 6.52,5.52 to 6.52,"Cn1cc(-c2cnc3[nH]cc(-c4cnc(OC5CCOCC5)c(C#N)c4)c3c2)cn1 [Compound A30, 5-[5-(1-Methylpyrazol-4-yl)-1H-pyrrolo[2,3-b]pyridin-3-yl]-2-tetrahydropyran-4-yloxypyridine-3-carbonitrile]"
> 6.52,4.30 to 5.52,"Cn1cc(-c2cnc3[nH]cc(-c4ccc(OC5COC5)c(C#N)c4)c3c2)cn1 [Compound A31, 5-[5-(1-methyl-1H-pyrazol-4-yl)-1H-pyrrolo[2,3-b]pyridin-3-yl]-2-(oxetan-3-yloxy)benzonitrile]"
> 6.52,5.52 to 6.52,"Cn1cc(-c2cnc3[nH]cc(-c4ccc(OCC5(C)COC5)c(C#N)c4)c3c2)cn1 [Compound A32, 2-(3-methyloxetan-3-ylmethoxy)-5-[5-(1-methyl-1H-pyrazol-4-yl)-1H-pyrrolo[2,3-b]pyridin-3-yl]benzonitrile]"
> 6.52,5.52 to 6.52,"N#Cc1cc(-c2c[nH]c3ncc(-c4cnn(CCN5CCCC5)c4)cc23)cnc1OC1CCOCC1 [Compound A33, 5-{5-[1-(2-Pyrrolidin-1-ylethyl)-1H-pyrazol-4-yl]-1H-pyrrolo[2,3-b]pyridin-3-yl}-2-(tetrahydropyran-4-yl-oxy)nicotinonitrile]"
> 6.52,4.30 to 5.52,"N#Cc1cc(-c2c[nH]c3ncc(-c4cnn(C5COC5)c4)cc23)ccc1OC1COC1 [Compound A34, 2-(oxetan-3-yloxy)-5-[5-(1-oxetan-3-yl-1H-pyrazol-4-yl)-1H-pyrrolo-[2,3-b]pyridin-3-yl]benzonitrile]"
> 6.52,5.52 to 6.52,"CC1(COc2ccc(-c3c[nH]c4ncc(-c5cnn(C6COC6)c5)cc34)cc2C#N)COC1 [Compound A35, 2-(3-methyloxetan-3-ylmethoxy)-5-[5-(1-oxetan-3-yl-1H-pyrazol-4-yl)-1H-pyrrolo[2,3-b]-pyridin-3-yl]benzonitrile]"
> 6.52,4.30 to 5.52,"CC1(COc2ccc(-c3c[nH]c4ncc(-c5cn[nH]c5)cc34)cc2C#N)COC1 [Compound A36, 2-(3-methyloxetan-3-ylmethoxy)-5-[5-(1H-pyrazol-4-yl)-1H-pyrrolo[2,3-b]pyridin-3-yl]benzonitrile]"
> 6.52,4.30 to 5.52,"N#Cc1cc(-c2c[nH]c3ncc(-c4cnn(C5COC5)c4)cc23)cnc1OC1CCOCC1 [Compound A37, 5-[5-(1-Oxetan-3-yl-1H-pyrazol-4-yl)-1H-pyrrolo-[2,3-b]pyridin-3-yl]-2-(tetrahydropyran-4-yloxy)-nicotinonitrile]"
> 6.52,5.52 to 6.52,"COCCn1cc(-c2cnc3[nH]cc(-c4cnc(OC5CCOCC5)c(C#N)c4)c3c2)cn1 [Compound A38, 5-{5-[1-(2-Methoxyethyl)-1H-pyrazol-4-yl]-1H-pyrrolo-[2,3-b]pyridin-3-yl}-2-(tetrahydropyran-4-yloxy)-nicotinonitrile]"
